# Results as given in US20210106567A1, “COMPOSITIONS AND METHODS FOR INHIBITING CARP-1 BINDING TO NEMO” (United States Government As Represented By The Department …, priority 2019, published 2021).
# How the values were obtained:
# [1] = test system: p65/RelA activation and phosphorylation of NEMO; experiment: Western blot for canonical NF-κB activation; assay type: cell-based; details: single agent, Western blot
# Excerpt: The cells were lysed to prepare protein extracts.
# [2] = test system: parental and chemo-resistant human and murine TNBC cells and parental renal cancer cells; experiment: Cytokine ELISA of culture media, chemotherapy-induced secretion; assay type: cell-based; details: single agent
# [3] = test system: RENCA renal cancer tumors; experiment: RENCA cell-derived syngeneic kidney cancer tumor model; details: throughout the experiment
# Protocol: The subcutaneous tumor bearing mice were treated with indicated agents. […] The end-points for assessing anti-tumor activity involved qualitative determination via tumor growth inhibition (% T/C) where T is the median tumor volume of the treated mice and C is the median tumor volume of the Control mice on any given day of measurement.
# MDR1 = experiment: Levels of drug efflux pump MDR1; assay type: cell-based, human; details: MDA-MB-468 cells
# Excerpt: Of note is that SNI-1 in combination with Adriamycin provoked a greater inhibition of tumor growth when compared with the tumor growth inhibition noted in animals treated with either agent alone. […] Since TNBCs and many other cancers are often known to express drug efflux pumps that contribute to lower efficacy of drugs in clinic and development of drug-resistant tumors, it is likely that the presence/expression of these drug efflux pumps function in part to interfere with a robust anti-tumor response to a combination of SNI-1 and Adriamycin.
# 4T1 TNBC tumors = experiment: 4T1 TNBC syngeneic tumor efficacy study in Balb/c mice; assay type: in vivo, mouse
# Protocol: Establishment of TNBC cell-derived xenografts in Syngeneic mice: Generation of 4T1 TNBC cell-derived sub-cutaneous xenografts in Balb/c mice were performed (Cheriyan et al. (2016) Oncotarget 7, 73370-73388; and Cheriyan et al. (2017) Oncotarget 8, 104928-104945). BALB/cAnNCr, 6-8-weeks old, female mice were purchased from Charles River Laboratories (Horsham, Pa.). Following suitable acclimation of animals, 1×10^6 4T1 TNBC cells were re-suspended in 200 μl of sterile saline, and implanted in the flanks using a 27-gauge needle. Tumors were allowed to grow to 500-1000 mg (˜10 days), and the aseptically harvested, minced into 3-4 mm^3 (30 mg) fragments and transplanted SC into naïve recipient mice using a standard 12 gauge trocar to serially maintain the tumor in vivo. For efficacy studies, tumors serially maintained in vivo were aseptically harvested and minced into 3-4 mm^3 (30 mg) fragments, then bilaterally transplanted subcutaneously along the flanks using a standard 12 gauge trocar. […] For the efficacy studies, SNI-1 was formulated in 8% DMSO (v/v) and 8% Cremophor (v/v) in cell grade water, pH4 as diluent.
# Clinical grade ADR stock (2 mg/mL) was diluted to the appropriate concentration with cell grade water; pH4 and clinical grade CIS (1 mg/ml) diluted with USP 0.9% saline; pH6). Mice were monitored daily for changes in condition and body weight. Tumors were measured three times weekly by caliper and tumor volume (mg) was calculated using the following formula: (A×B2)/2 where A and B are the tumor length and width (in mm), respectively. […] Efficacy was also assessed quantitatively using tumor growth delay (T−C) defined as the difference between the median time (in days) required for the treatment group tumors (T) to reach 1000 mg and the median time (days) for the control group tumors to reach the same volume. Post last treatment, tumor tissue and samples from various organs (spleen, liver, kidney, heart, bone, and lungs) were collected. Additionally, the whole blood samples were obtained from a representative tumor-bearing mouse from each group via terminal cardiac puncture. Immuno-histochemical analyses of the tumor and tissue samples were performed for expression of activated RelA (serine 536 phosphorylated p65), total RelA, cleaved caspase-3, and CARP-1 proteins. The levels of pro-inflammatory cytokines in the sera were analyzed by sandwich ELISA assays following methods detailed herein (Cheriyan et al. (2016) Oncotarget 7, 73370-73388; and Cheriyan et al. (2017) Oncotarget 8, 104928-104945).
compound,measurement,setting,value
N.N.[Cl][Pt][Cl] [Cisplatin],p65/RelA activation and phosphorylation of NEMO,[1],robust increase
same,"levels of TNFα, IL-8, and IL-1β in the media",[2],robust increase
same,weight loss in animals,[3],0.8-3.2%
same,levels of drug efflux pump MDR1,MDR1,robust increase
same,serum levels of TNFα and IL-1β,4T1 TNBC tumors; ELISA of sera,robustly stimulated
same,phosphorylated p65/RelA in tumors (immuno-histochemistry),"4T1 TNBC tumors; mouse, in vivo",presence of phosphorylated p/65RelA
same,cleaved caspase-3 in tumors (immuno-histochemistry),4T1 TNBC tumors; versus untreated control animal,strong presence of cleaved caspase-3
